# According to patent US20250114374A1, “BCL-2 INHIBITORS” (Newave Pharmaceutical Inc., priority 2021, published 2025):
# Test system: RS4; 11 with G101V mutation
# Test: In vitro anti-proliferation assay (ATPlite luminescence) in BCL-2-dependent ALL cell line RS4;11 with G101V mutation
# Assay type: cell-based
# Conditions: Homo sapiens, RS4-11, 72 h; read-out: RS411-G101V IC50
# Outline: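 RS4;11 G101V cells at about 1×10^4 per well were exposed to a range of compound concentrations for about 72 h in medium with 10% FBS. Cellular ATP was measured by ATPlite luminescence after lysis, and IC50 was derived from the dose-response.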
row,IC50 [nM],Structure (SMILES)
1,104,"CC(C)Oc1ccccc1[C@@H]1CN([C@H]2COCc3c(F)cc(F)cc32)CCN1C1CC2(CCN(c3ccc(C(=O)NS(=O)(=O)c4cc5c(c([N+](=O)[O-])c4)N[C@H](C4CCOCC4)CO5)c(N4c5cc6cc[nH]c6nc5O[C@H]5COCC[C@@H]54)c3)CC2)C1 [Example 230, 4-(2-((R)-4-((R)-6,8-difluoroisochroman-4-yl)-2-(2-isopropoxyphenyl)piperazin-1-yl)-7-azaspiro[3.5]nonan-7-yl)-N-(((R)-5-nitro-3-(tetrahydro-2H-pyran-4-yl)-3,4-dihydro-2H-benzo[b][1,4]oxazin-7-yl)sulfonyl)-2-((5aS,9aR)-6,7,9,9a-tetrahydro-1H-pyrano[3,4-b]pyrrolo[3′,2′:5,6]pyrido[3,2-e][1,4]oxazin-5(5aH)-yl)benzamide]"
2,94.7,"CC(C)Oc1ccccc1[C@@H]1CN([C@@H]2COCc3c(F)cc(F)cc32)CCN1C1CC2(CCN(c3ccc(C(=O)NS(=O)(=O)c4cc5c(c([N+](=O)[O-])c4)N[C@H](C4CCOCC4)CO5)c(N4c5cc6cc[nH]c6nc5O[C@H]5COCC[C@@H]54)c3)CC2)C1 [Example 231, 4-(2-((R)-4-((S)-6,8-difluoroisochroman-4-yl)-2-(2-isopropoxyphenyl)piperazin-1-yl)-7-azaspiro[3.5]nonan-7-yl)-N-(((R)-5-nitro-3-(tetrahydro-2H-pyran-4-yl)-3,4-dihydro-2H-benzo[b][1,4]oxazin-7-yl)sulfonyl)-2-((5aS,9aR)-6,7,9,9a-tetrahydro-1H-pyrano[3,4-b]pyrrolo[3′,2′:5,6]pyrido[3,2-e][1,4]oxazin-5(5aH)-yl)benzamide]"
3,84.2,"COc1cc2c(nc1N1CCOC[C@@H]1C)COC[C@H]2N1CCN(C2CC3(CCN(c4ccc(C(=O)NS(=O)(=O)c5cc6c(c([N+](=O)[O-])c5)N[C@H](C5CCOCC5)CO6)c(N5c6cc7cc[nH]c7nc6O[C@H]6COCC[C@@H]65)c4)CC3)C2)[C@H](c2ccccc2OC(C)C)C1 [Example 232, 4-(2-((R)-2-(2-isopropoxyphenyl)-4-((S)-3-methoxy-2-((S)-3-methylmorpholino)-5,8-dihydro-6H-pyrano[3,4-b]pyridin-5-yl)piperazin-1-yl)-7-azaspiro[3.5]nonan-7-yl)-N-(((R)-5-nitro-3-(tetrahydro-2H-pyran-4-yl)-3,4-dihydro-2H-benzo[b][1,4]oxazin-7-yl)sulfonyl)-2-((5aS,9aR)-6,7,9,9a-tetrahydro-1H-pyrano[3,4-b]pyrrolo[3′,2′:5,6]pyrido[3,2-e][1,4]oxazin-5(5aH)-yl)benzamide]"
4,4.64,"COc1cc2c(nc1N1CCOC[C@@H]1C)COC[C@@H]2N1CCN(C2CC3(CCN(c4ccc(C(=O)NS(=O)(=O)c5cc6c(c([N+](=O)[O-])c5)N[C@H](C5CCOCC5)CO6)c(N5c6cc7cc[nH]c7nc6O[C@H]6COCC[C@@H]65)c4)CC3)C2)[C@H](c2ccccc2OC(C)C)C1 [Example 233, 4-(2-((R)-2-(2-isopropoxyphenyl)-4-((R)-3-methoxy-2-((S)-3-methylmorpholino)-5,8-dihydro-6H-pyrano[3,4-b]pyridin-5-yl)piperazin-1-yl)-7-azaspiro[3.5]nonan-7-yl)-N-(((R)-5-nitro-3-(tetrahydro-2H-pyran-4-yl)-3,4-dihydro-2H-benzo[b][1,4]oxazin-7-yl)sulfonyl)-2-((5aS,9aR)-6,7,9,9a-tetrahydro-1H-pyrano[3,4-b]pyrrolo[3′,2′:5,6]pyrido[3,2-e][1,4]oxazin-5(5aH)-yl)benzamide]"

# Same assay, conditions: cellular anti-proliferative IC50, about 72 hours, medium with 10% FBS, ATPlite; read-out: RS411-G101V IC50
row,Structure (SMILES),IC50 [nM]
1,"CC(C)Oc1ccccc1[C@@H]1CN(C2CCC(C)(C)CC2)CCN1C1CC2(CCN(c3ccc(C(=O)NS(=O)(=O)c4cc5c(c([N+](=O)[O-])c4)N[C@H](C4CCOCC4)CO5)c(N4c5cc6cc[nH]c6nc5O[C@H]5COCC[C@@H]54)c3)CC2)C1 (stereo partly drawn) [Example 226, 4-{2-[(2R)-4-(4,4-dimethylcyclohexyl)-2-(2-isopropoxyphenyl)piperazin-1-yl]-7-azaspiro[3.5]nonan-7-yl}-2-[(3R,8S)-2,5-dioxa-9,15,17-triazatetracyclo[8.7.0.0^{3,8}.0^{12,16}]heptadeca-1(10),11,13,16-tetraen-9-yl]-N-[(3R)-5-nitro-3-(oxan-4-yl)-3,4-dihydro-2H-1,4-benzoxazin-7-ylsulfonyl]benzamide]",62.6
2,"CC(C)Oc1ccccc1[C@@H]1CN(Cc2ccc(F)c(F)c2)CCN1C1CC2(CCN(c3cc(N4c5cc6cc[nH]c6nc5O[C@H]5COCC[C@@H]54)c(C(=O)NS(=O)(=O)c4cc5c(c([N+](=O)[O-])c4)N[C@H](C4CCOCC4)CO5)cc3F)CC2)C1 [Example 227, 4-{2-[(2R)-4-[(3,4-difluorophenyl)methyl]-2-(2-isopropoxyphenyl)piperazin-1-yl]-7-azaspiro[3.5]nonan-7-yl}-2-[(3R,8S)-2,5-dioxa-9,15,17-triazatetracyclo[8.7.0.0^{3,8}.0^{12,16}]heptadeca-1(10),11,13,16-tetraen-9-yl]-5-fluoro-N-[(3R)-5-nitro-3-(oxan-4-yl)-3,4-dihydro-2H-1,4-benzoxazin-7-ylsulfonyl]benzamide]",119
3,"CC(C)Oc1ccccc1[C@@H]1CN(Cc2ccc(F)c(F)c2)CCN1C1CC2(CCN(c3ncc(C(=O)NS(=O)(=O)c4cc5c(c([N+](=O)[O-])c4)N[C@H](C4CCOCC4)CO5)c(N4c5cc6cc[nH]c6nc5O[C@H]5COCC[C@@H]54)c3F)CC2)C1 [Example 228, 6-{2-[(2R)-4-[(3,4-difluorophenyl)methyl]-2-(2-isopropoxyphenyl)piperazin-1-yl]-7-azaspiro[3.5]nonan-7-yl}-4-[(3R,8S)-2,5-dioxa-9,15,17-triazatetracyclo[8.7.0.0^{3,8}.0^{12,16}]heptadeca-1(10),11,13,16-tetraen-9-yl]-5-fluoro-N-[(3R)-5-nitro-3-(oxan-4-yl)-3,4-dihydro-2H-1,4-benzoxazin-7-ylsulfonyl]pyridine-3-carboxamide]",202
4,"CC(C)Oc1ccccc1[C@@H]1CN(Cc2ccc(F)c(F)c2)CCN1C1CC2(CCN(c3nc(N4c5cc6cc[nH]c6nc5O[C@H]5COCC[C@@H]54)c(C(=O)NS(=O)(=O)c4cc5c(c([N+](=O)[O-])c4)N[C@H](C4CCOCC4)CO5)cc3F)CC2)C1 [Example 234, 6-{2-[(2R)-4-[(3,4-difluorophenyl)methyl]-2-(2-isopropoxyphenyl)piperazin-1-yl]-7-azaspiro[3.5]nonan-7-yl}-2-[(3R,8S)-2,5-dioxa-9,15,17-triazatetracyclo[8.7.0.0^{3,8}.0^{12,16}]heptadeca-1(10),11,13,16-tetraen-9-yl]-5-fluoro-N-[(3R)-5-nitro-3-(oxan-4-yl)-3,4-dihydro-2H-1,4-benzoxazin-7-ylsulfonyl]pyridine-3-carboxamide]",181
5,"CC(C)Oc1ccccc1[C@@H]1CN(Cc2ccc(F)c(F)c2)CCN1C1CC2(CCN(c3nc(N4c5cc6cc[nH]c6nc5O[C@H]5COCC[C@@H]54)c(C(=O)NS(=O)(=O)c4cc5c(c([N+](=O)[O-])c4)N[C@H](C4CCOCC4)CO5)cc3F)CC2)C1 [Example 235, 6-{2-[(2R)-4-[(3,4-difluorophenyl)methyl]-2-(2-isopropoxyphenyl)piperazin-1-yl]-7-azaspiro[3.5]nonan-7-yl}-2-[(3R,8S)-2,5-dioxa-9,15,17-triazatetracyclo[8.7.0.0^{3,8}.0^{12,16}]heptadeca-1(10),11,13,16-tetraen-9-yl]-5-fluoro-N-[(3R)-5-nitro-3-(oxan-4-yl)-3,4-dihydro-2H-1,4-benzoxazin-7-ylsulfonyl]pyridine-3-carboxamide]",2270
6,"CC(C)Oc1ccccc1[C@@H]1CN(Cc2ccc(F)c(F)c2)CCN1C1CC2(CCN(c3ccc(C(=O)NS(=O)(=O)c4cc5c(c([N+](=O)[O-])c4)N[C@H](C4CCOCC4)CO5)c(N4c5cc6c(F)c[nH]c6nc5O[C@H]5COCC[C@@H]54)c3)CC2)C1 [Example 236, 4-{2-[(2R)-4-[(3,4-difluorophenyl)methyl]-2-(2-isopropoxyphenyl)piperazin-1-yl]-7-azaspiro[3.5]nonan-7-yl}-2-[(3R,8S)-13-fluoro-2,5-dioxa-9,15,17-triazatetracyclo[8.7.0.0^{3,8}.0^{12,16}]heptadeca-1(10),11,13,16-tetraen-9-yl]-N-[(3R)-5-nitro-3-(oxan-4-yl)-3,4-dihydro-2H-1,4-benzoxazin-7-ylsulfonyl]benzamide]",5.52
7,"CC(C)Oc1ccccc1[C@@H]1CN(Cc2ccc(F)c(F)c2)CCN1C1CC2(CCN(c3ccc(C(=O)NS(=O)(=O)c4cc5c(c([N+](=O)[O-])c4)N[C@H](C4CCOCC4)CO5)c(N4c5cc6cc[nH]c6nc5O[C@@H]5COCC[C@H]54)c3)CC2)C1 [Example 239, 4-{2-[(2R)-4-[(3,4-difluorophenyl)methyl]-2-(2-isopropoxyphenyl)piperazin-1-yl]-7-azaspiro[3.5]nonan-7-yl}-2-[(3S,8R)-2,5-dioxa-9,15,17-triazatetracyclo[8.7.0.0^{3,8}.0^{12,16}]heptadeca-1(10),11,13,16-tetraen-9-yl]-N-[(3R)-5-nitro-3-(oxan-4-yl)-3,4-dihydro-2H-1,4-benzoxazin-7-ylsulfonyl]benzamide]",7.1
8,"CC(C)Oc1ccccc1[C@@H]1CN(Cc2ccc(F)c(F)c2)CCN1C1CC2(CCN(c3ccc(C(=O)NS(=O)(=O)c4cc5c(c([N+](=O)[O-])c4)N[C@H](C4CCOCC4)CO5)c(N4c5cc6cc[nH]c6nc5O[C@H]5CCOC[C@@H]54)c3)CC2)C1 [Example 240, 4-{2-[(2R)-4-[(3,4-difluorophenyl)methyl]-2-(2-isopropoxyphenyl)piperazin-1-yl]-7-azaspiro[3.5]nonan-7-yl}-2-[(3S,8S)-5,9-dioxa-2,11,13-triazatetracyclo[8.7.0.0^{3,8}.0^{12,16}]heptadeca-1(10),11,14,16-tetraen-2-yl]-N-[(3R)-5-nitro-3-(oxan-4-yl)-3,4-dihydro-2H-1,4-benzoxazin-7-ylsulfonyl]benzamide]",6.94
